In patent publication US20220110953A1, “METHODS AND COMPOSITIONS FOR TREATING HUMAN PAPILLOMAVIRUS (HPV)-INDUCED CANCERS” (The Board of Regents of the University of Oklahoma, priority 2020, published 2022):

Legend:
HPV 18 E6 = assay: Western blot for phosphorylated E6 in HeLa cells treated with IKKβ inhibitor; type: cell-based, human
Description: HPV-18-positive HeLa cells were seeded on 6 cm dishes and allowed to attach overnight. Fresh medium was then added, containing either 0, 100 nM or 500 nM […] inhibitor (in DMSO). After 5 hours the cells were harvested in 2×SDS-PAGE gel loading buffer, run on SDS-PAGE, and analyzed by Western Blot. The membrane was probed with antibody specific for phosphorylated E6, as described previously (Boon and Banks 2012, DOI: 10.1128/JVI.02074-12). Following incubation with primary antibody, the appropriate horseradish peroxidase (HRP)-conjugated secondary antibodies (Dako) were used, followed by enhanced chemiluminescence (ECL) detection according to the manufacturer's instructions.
To assess whether phosphorylation-mediated regulation of E6 plays a role in suppression of Magi degradation, we treated cells expressing HPV 18 E6 with the IKKβ inhibitor […] (at 100 and 500 nM) and compared with untreated cells for E6 phosphorylation. Western blot analysis was performed using an antibody to detect phosphorylated E6.

HeLa (HPV 18+) cells = assay: Effect of IMD 0354 on growth of HeLa cells (cell count after 48h); type: cell-based, human
Description: (§1) To examine the effect of IMD 0354 on the growth of HaCat (HPV^−), HeLa (HPV 18^+), CasKi and SiHa (both HPV 16^+), the cells were plated out and allowed to adhere overnight. Next day their culture medium was replaced and different concentrations of IMD 0354 (final concentrations 250, 500, 750, 1000, 1250 nM, using DMSO to equalize input volumes and as negative control) were added to the plates. Cells were counted 48h later.
(§2) IKKβ is a serine/threonine kinase that is highly conserved between flies and humans. It regulates the innate immune pathway by activating NF-κB, which in turn activates the expression of antimicrobial peptides to fight against pathogens. To determine whether IKKβ also has a functional link to E6+UBE3A in human cells, we assessed the effect of the commercial IKKβ inhibitor IMD 0354 on the growth of HaCat (HPV^−), HeLa (HPV 18^+), CasKi (HPV 16^+), and SiHa (HPV 16^+) cells. Different concentrations of the inhibitor were tested ranging from 250, 500, 750, 1000, to 1250 nM.

SiHa (HPV 16+) cells = assay: Effect of IMD 0354 on growth of SiHa cells (cell count after 48h); type: cell-based, human; settings: 250-1250 nM
Description: as §1, §2

HaCat (HPV−) cells = assay: Effect of IMD 0354 on growth of HaCat cells (cell count after 48h); type: cell-based, human; settings: 250-1250 nM
Description: as §1, §2

[1] = tested on: HPV 16+ and HPV 18+ human cervical cancer cell lines; assay: Auranofin cell growth in human cervical cancer cell lines; type: cell-based; settings: FIG. 6
[2] = tested on: SiHa cervical cancer xenografts (HPV 16+); assay: SiHa tumor xenograft model; type: in vivo, mice; settings: 10 mg/kg/day i.p., vs placebo
Description: (§3) The animal study was conducted in accordance with a standard animal protocol approved by the University of Oklahoma Health Sciences Center Institutional Animal Care and Use Committee (IACUC Protocol #19-009-CHI). […] Auranofin (10 mg/kg/day) or placebo (2% DMSO, 10% ethanol and 5% polyethylene glycol 400) were given daily for 16 days, through intraperitoneal injection. Mice were weighed once per week and animal health was monitored daily. At the end of the study, all mice were euthanized by CO2 inhalation followed by cardiac puncture and total blood collection. Tumors were collected at necropsy and a portion of each tumor from each animal was fixed in paraformaldehyde and embedded in paraffin, while another portion was snap-frozen in liquid nitrogen.
(§4) The tumor volume and body weight data were determined to be not normally distributed, and the final tumor weight data was determined to be normally distributed using the Shapiro-Wilk test. Tumor volume and body weight were compared between treatment groups using the Wilcoxon matched-pairs signed rank test. A two-way ANOVA with multiple comparisons was used to evaluate the interaction between time and treatment. An unpaired t-test was used to compare the final tumor weights between the two treatment groups. The p values <0.05 were considered statistically significant. Statistical analysis was performed using Prism 8.0 (GraphPad).

[3] = Body weight and gross toxicity in the SiHa xenograft study; type: in vivo, mice; settings: 10 mg/kg/day i.p., 16 days
Description: as §3, §4

Row | SMILES | E6 phosphorylation (Western blot) (HPV 18 E6; HeLa cell extracts, 100 nM, 5 hours) | E6 phosphorylation (Western blot) (HPV 18 E6; HeLa cell extracts, 500 nM, 5 hours) | E6 phosphorylation (Western blot) (HPV 18 E6; cells expressing HPV 18 E6, at 100 and 500 nM, compared with untreated cells) | number of surviving cells relative to the initial number of cells (HeLa (HPV 18+) cells; 250 nM) | number of surviving cells relative to the initial number of cells (HeLa (HPV 18+) cells; 1250 nM) | effect on cell growth (HeLa (HPV 18+) cells; 250-1250 nM) | effect on cell growth (SiHa (HPV 16+) cells) | effect on cell growth (HaCat (HPV−) cells) | activity against cervical cancer cell lines (cell growth) [1] | tumor growth (tumor volume over time) ([2]; 16 days, Wilcoxon p=0.0011) | tumor volume after 16 days of treatment ([2]; two-way ANOVA multiple comparisons p=0.0016) | gross toxicity to the animals [3] | body weights ([3]; vs placebo, any time point, p>0.05)
1 | O=C(Nc1cc(C(F)(F)F)cc(C(F)(F)F)c1)c1cc(Cl)ccc1O [IMD 0354] | lack of E6 phosphorylation | results in phosphorylation of E6 | extensive phosphorylation of E6 | 40% | 10% | most strongly affected | significant | minor effect |  |  |  |  | 
2 | CC(=O)OC[C@H]1O[C@@H]([S-])[C@H](OC(C)=O)[C@@H](OC(C)=O)[C@@H]1OC(C)=O.CCP(CC)CC.[Au+] [Auranofin] |  |  |  |  |  |  |  |  | active | significant reduction in tumor growth | significant reduction in tumor volume | did not cause gross toxicity | no significant differences
